Consider nine compounds from PubChem BioAssay (NCI).

Some test systems named below: KM12 colon; MCF7 breast; HCC-2998 colon; NCI/ADR-RES ovarian; A498 renal; NCI-H23 lung; SN12C renal; RXF 393 renal; SNB-75 CNS; SK-MEL-5 melanoma.
What all share (assay): NCI-60 cell line screen, 48 h

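Method: 48-hour compound exposure of cells in 96-well plates, five concentrations, linear interpolation of endpoints. The concentration for 50% growth inhibition is given as GI50. TGI: concentration producing complete growth inhibition.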

Turning to `C[C@@H]1C/C=C\C(=O)O[C@H](/C=C/C#C/C=C/C(C)(C)[C@@H](O)c2cccc(O)c2Br)[C@@H](C)/C=C/[C@H](C)C[C@H](OC(N)=O)C1`, the GI50 with KM12 colon was 0.0252 µM; in the experiment on MCF7 breast, 0.0613 µM; in the experiment with HCC-2998 colon it was 0.054 µM; with NCI/ADR-RES ovarian, 0.0567 µM; in the experiment with A498 renal, 0.543 µM; with NCI-H23 lung it was 0.319 µM. In addition, the GI50 in the experiment with SN12C renal is 0.0542 µM; with RXF 393 renal, 0.636 µM; in the experiment with SNB-75 CNS, 0.255 µM; in the experiment on SK-MEL-5 melanoma, 0.0179 µM. In addition, the TGI in the experiment with KM12 colon was determined as 16.2 µM; in the experiment with MCF7 breast, 15.5 µM; with HCC-2998 colon, 11.8 µM; in the experiment on NCI/ADR-RES ovarian, 16.4 µM; with A498 renal, 18.7 µM; with NCI-H23 lung, 21.6 µM. The TGI is 14 µM in the experiment with SN12C renal, 7.81 µM in the experiment on RXF 393 renal, 21.2 µM with SNB-75 CNS and 0.0354 µM in the experiment on SK-MEL-5 melanoma.
For `CCC(=O)c1cc([N+](=O)[O-])c(Br)s1`, the GI50 in the experiment on KM12 colon was 11.6 µM; in the experiment with MCF7 breast it was 2.89 µM; in the experiment with HCC-2998 colon it was 15.2 µM; in the experiment on NCI/ADR-RES ovarian it was 6.15 µM; in the experiment with A498 renal it was 17.3 µM; with NCI-H23 lung, 17.3 µM. The GI50 in the experiment on SN12C renal is 8.3 µM; with RXF 393 renal, 1.88 µM; in the experiment with SNB-75 CNS, 10.4 µM; with SK-MEL-5 melanoma it was 16.5 µM. The TGI in the experiment with KM12 colon was 24.2 µM; in the experiment with MCF7 breast, 12.3 µM; in the experiment with HCC-2998 colon, 31 µM; in the experiment on NCI/ADR-RES ovarian, 24.1 µM; in the experiment with A498 renal, 31.3 µM; in the experiment with NCI-H23 lung it was 49.2 µM. Also, the TGI is 24.1 µM with SN12C renal, 3.31 µM with RXF 393 renal, 22.2 µM in the experiment on SNB-75 CNS and 30.4 µM in the experiment on SK-MEL-5 melanoma.
On to `C1=C2CNCC3=Cc4ccc5ccccc5c4OC23Oc2c1ccc1ccccc21`, for which the GI50 in the experiment with KM12 colon was 3.83 µM; with MCF7 breast, 2.83 µM; with HCC-2998 colon it was 3.99 µM; in the experiment on NCI/ADR-RES ovarian, 2.1 µM; in the experiment with A498 renal it was 3.87 µM; in the experiment on NCI-H23 lung, 6.94 µM. For the same compound, the GI50 in the experiment on SN12C renal was 4.22 µM; with RXF 393 renal it was 1.79 µM; in the experiment on SNB-75 CNS, 2.32 µM; in the experiment on SK-MEL-5 melanoma, 3.15 µM. Further, the TGI in the experiment with KM12 colon stood at 16.3 µM; in the experiment on MCF7 breast it was 12.7 µM; in the experiment with HCC-2998 colon, 19.7 µM; in the experiment with NCI/ADR-RES ovarian it was 6.06 µM; in the experiment with A498 renal, 17 µM; in the experiment on NCI-H23 lung it was 32 µM. The TGI stood at 20.1 µM in the experiment with SN12C renal, 6.16 µM in the experiment on RXF 393 renal, 11.5 µM in the experiment on SNB-75 CNS and 13.9 µM in the experiment with SK-MEL-5 melanoma.
As for `COc1ccc2cc(-c3c(-c4ccncc4)nc(-c4ccc(S(C)=O)cc4C)n3C)ccc2c1` (stereo not given), the GI50 in the experiment with KM12 colon is greater than 22.3 µM; in the experiment on MCF7 breast, 14.1 µM; in the experiment with HCC-2998 colon, greater than 25 µM; with NCI/ADR-RES ovarian, 24.3 µM; in the experiment on A498 renal it was 8.32 µM; in the experiment on NCI-H23 lung, greater than 25 µM. Moreover, the GI50 in the experiment on SN12C renal is 15.7 µM; in the experiment with RXF 393 renal, greater than 24.2 µM; in the experiment with SNB-75 CNS, greater than 20.8 µM; with SK-MEL-5 melanoma it was 7.58 µM. Also, the TGI in the experiment on KM12 colon, with MCF7 breast, in the experiment on HCC-2998 colon, in the experiment on NCI/ADR-RES ovarian, with A498 renal and with NCI-H23 lung was greater than 25 µM in each case. Moreover, the TGI with SN12C renal was greater than 25 µM; in the experiment with RXF 393 renal, greater than 25 µM; in the experiment on SNB-75 CNS, greater than 25 µM; in the experiment with SK-MEL-5 melanoma it was greater than 21.6 µM.
As to `CCOCNc1ccc(N2C(=O)/C(=C/c3ccc(N(CC)CC)cc3)N=C2c2ccccc2)cc1`, the GI50 in the experiment with KM12 colon is 5.44 µM; in the experiment on MCF7 breast, 36.5 µM; in the experiment with HCC-2998 colon, greater than 100 µM; with NCI/ADR-RES ovarian it was 33.9 µM; in the experiment on A498 renal it was 35.4 µM; with NCI-H23 lung, 27.3 µM. Further, the GI50 in the experiment with SN12C renal is 16.6 µM; in the experiment on RXF 393 renal it was 4.23 µM; with SNB-75 CNS, 16.2 µM; in the experiment with SK-MEL-5 melanoma, 22.9 µM. In addition, the TGI in the experiment on KM12 colon, in the experiment with MCF7 breast, in the experiment on HCC-2998 colon, in the experiment on NCI/ADR-RES ovarian, in the experiment with A498 renal and in the experiment with NCI-H23 lung was greater than 100 µM each time. The TGI in the experiment with SN12C renal is greater than 100 µM; with RXF 393 renal, 17.4 µM; in the experiment on SNB-75 CNS, 81.2 µM; in the experiment with SK-MEL-5 melanoma it was greater than 100 µM.
Regarding `Fc1c[c-]c(-c2ccccn2)c(F)c1.[CH3-].[Pt+2].c1ccc(P(C[PH+](c2ccccc2)c2ccccc2)c2ccccc2)cc1`, the GI50 in the experiment with KM12 colon was 0.421 µM; with MCF7 breast, 0.577 µM; in the experiment with HCC-2998 colon it was 0.484 µM; in the experiment on NCI/ADR-RES ovarian, 2.53 µM; in the experiment on A498 renal, 0.712 µM; with NCI-H23 lung it was 0.563 µM. Moreover, the GI50 in the experiment with SN12C renal is 0.502 µM; with RXF 393 renal, 0.702 µM; in the experiment on SNB-75 CNS it was 0.967 µM; with SK-MEL-5 melanoma it was 0.714 µM. In addition, the TGI was 1.25 µM with KM12 colon; 2.98 µM in the experiment on MCF7 breast; 1.29 µM in the experiment on HCC-2998 colon; 11.9 µM in the experiment on NCI/ADR-RES ovarian; 1.58 µM with A498 renal; 1.99 µM in the experiment with NCI-H23 lung. The TGI in the experiment with SN12C renal was 1.77 µM; with RXF 393 renal it was 1.49 µM; in the experiment with SNB-75 CNS, 4.14 µM; in the experiment with SK-MEL-5 melanoma, 1.37 µM.
For `C=CC(=O)Nc1cccc(Nc2nc(Nc3ccc(OCCOC(F)F)cc3)ncc2F)c1`, the GI50 was 3.57 µM in the experiment on KM12 colon; 3 µM in the experiment on MCF7 breast; 12.6 µM with HCC-2998 colon; 2.48 µM with NCI/ADR-RES ovarian; 0.408 µM in the experiment with A498 renal; 6.99 µM in the experiment on NCI-H23 lung. Further, the GI50 in the experiment with SN12C renal is 2.54 µM; with RXF 393 renal, 1.09 µM; in the experiment on SNB-75 CNS, 0.848 µM; with SK-MEL-5 melanoma it was 3.74 µM. For the same compound, the TGI in the experiment on KM12 colon was 17.2 µM; with MCF7 breast, 41.2 µM; with HCC-2998 colon it was 47.6 µM; in the experiment with NCI/ADR-RES ovarian, 19.7 µM; with A498 renal, 1.83 µM; in the experiment with NCI-H23 lung it was greater than 100 µM. Further, the TGI turned out to be 16.2 µM in the experiment with SN12C renal, 4.42 µM in the experiment on RXF 393 renal, 5 µM in the experiment on SNB-75 CNS and 15.1 µM in the experiment on SK-MEL-5 melanoma.
With `c1ccc(CC(NCCNC(Cc2ccccc2)c2ccccc2)c2ccccc2)cc1` (stereo not given), the GI50 was 0.384 µM with KM12 colon; 0.311 µM in the experiment with MCF7 breast; 0.393 µM in the experiment with HCC-2998 colon; 0.643 µM in the experiment with NCI/ADR-RES ovarian; 1.25 µM with A498 renal; 0.589 µM with NCI-H23 lung. Further, the GI50 in the experiment on SN12C renal was 0.517 µM; in the experiment on RXF 393 renal it was 0.26 µM; in the experiment on SNB-75 CNS it was 1.43 µM; with SK-MEL-5 melanoma, 0.271 µM. Also, the TGI in the experiment on KM12 colon turned out to be 1.52 µM; in the experiment with MCF7 breast, 1.14 µM; in the experiment on HCC-2998 colon it was 1.55 µM; with NCI/ADR-RES ovarian, 2.2 µM; with A498 renal, 2.66 µM; in the experiment on NCI-H23 lung it was 2.55 µM. Besides, the TGI in the experiment on SN12C renal came to 1.96 µM; with RXF 393 renal, 0.705 µM; with SNB-75 CNS, 4.56 µM; in the experiment with SK-MEL-5 melanoma, 0.779 µM.
Consider `NC(=O)C(=O)n1ncc(Cl)c(Cl)c1=O`, for which the TGI was 62.5 µM in the experiment with KM12 colon; greater than 100 µM in the experiment on MCF7 breast; 32.1 µM in the experiment with HCC-2998 colon; greater than 100 µM in the experiment on NCI/ADR-RES ovarian; greater than 100 µM with A498 renal; 52.9 µM in the experiment with NCI-H23 lung. Moreover, the TGI in the experiment on SN12C renal is 40.8 µM; in the experiment on RXF 393 renal, greater than 43.1 µM; with SNB-75 CNS, greater than 69.7 µM; with SK-MEL-5 melanoma it was 39.4 µM.
